Measurements taken from US12384792B2, “Solid forms of isoquinolinones, and process of making, composition comprising, and methods of using the same” (Twelve Therapeutics, Inc., priority 2015, dated 2025).
≈ marks a conversion by molar mass, not a printed value. Like-named read-outs stand apart in the source and are kept apart here. Values belong to the compound of their own block, whether it stands above or below them.

Key:
Type in all cases: physicochemical
[1] = Gravimetric vapour sorption (GVS); details: for GVS total weight change 0-90% RH: 25° C.
Experimental: Gravimetric Vapour Sorption (GVS)
Sorption isotherms were obtained using a SMS DVS Intrinsic moisture sorption analyser, controlled by DVS Intrinsic Control software v1.0.1.2 (or v 1.0.1.3). The sample temperature was maintained at 25° C. by the instrument controls. The humidity was controlled by mixing streams of dry and wet nitrogen, with a total flow rate of 200 ml/min The relative humidity was measured by a calibrated Rotronic probe (dynamic range of 1.0-100% RH), located near the sample. The weight change, (mass relaxation) of the sample as a function of % RH was constantly monitored by the microbalance (accuracy ±0.005 mg). Typically 5-20 mg of sample was placed in a tared mesh stainless steel basket under ambient conditions. The sample was loaded and unloaded at 40% RH and 25° C. (typical room conditions). A moisture sorption isotherm was performed as outlined below (2 scans giving 1 complete cycle). The standard isotherm was performed at 25° C. at 10% RH intervals over a 0-90% RH range. Data analysis was carried out using Microsoft Excel using DVS Analysis Suite v6.2 (or 6.1 or 6.0).

[2] = Static stability on storage at controlled temperature/RH (XRPD, purity)
From the text: (§1) See tables below for the summarized results.

[3] = Static storage stability of solid forms (40° C./75% RH, 25° C./96% RH), form checked by XRPD; details: for Static Stability 40° C./75% RH: dried screening sample, solid form after 7 and 36 days at 40° C./75% RH
[4] = Competitive slurry/water activity experiments with Forms 1 and 6
From the text: IPA/water and ACN/water were selected as suitable solvents for the competitive slurry/water activity experiments. These solvent mixtures were selected to have some solubility of the Compound 1 free base and to be able to obtain a wide range of water activities by varying the water content. IPA/water was selected as this solvent often formed solvated forms of the free base and ACN/water was selected as this solvent produced only Form 1 of the free base during the polymorph screening experiments.
There was one exception to this—the IPA/water sample at 50° C. and at a water activity of 0.8 gave Form 1 rather than Form 4.

[5] = Gravimetric vapour sorption (GVS) isotherm, hygroscopicity; details: for weight increase (GVS): increase in relative humidity from about 0 to about 90% relative humidity
[6] = Kinetic solubility after 30 min in water and in 0.1M HCl; details: for solubility kinetic at 30 min: thermodynamic from solid, cocrystal, in duplicate, read-out: 30 min Kinetic solubility (pH)
From the text: as §1

[7] = Solubility screen: solubility assessment of amorphous Compound 1 in solvents; details: thermodynamic from solid, room temperature
Experimental: Amorphous Compound 1 (30 mg) was weighed out and 100 μl (˜3 vols) solvent was added at room temperature. Many samples initially dissolved but precipitated back out again after stirring for a few minutes. It was assumed that these samples had crystallized, so additional portions of solvent were added to determine the solubility of the crystalline material. See Table 1 for solubility assessment of amorphous Compound 1. […]

[8] = after 63 days, no change in form but loss of crystallinity
[9] = 7 d storage at 40° C./75% RH and at 25° C./97% RH, result stated for both conditions

Structure (SMILES): C[C@H](NC(=O)c1c(N)nn2cccnc12)c1cc2cccc(C#Cc3cnn(C)c3)c2c(=O)n1-c1ccccc1 [Form 1 reference]
Hygroscopicity by GVS ([1]; 0-90% RH): non-
GVS total weight change 0-90% RH ([1]; 0-90% RH): ~0.5 wt %
Static stability at 25° C./96% RH, XRPD ([2]; after 7 days): no change after 7 days,
Static stability at 40° C./75% RH, XRPD ([2]; after 7 days): no change after 7 days,
Static stability at 25° C./96% RH, form by XRPD [2, 8]: after 63 days no change
Static stability at 40° C./75% RH, form by XRPD [2, 8]: after 63 days no change

Structure (SMILES): C[C@H](NC(=O)c1c(N)nn2cccnc12)c1cc2cccc(C#Cc3cnn(C)c3)c2c(=O)n1-c1ccccc1 [Form 1, (S)-2-amino-N-(1-(8-((1-methyl-1H-pyrazol-4-yl)ethynyl)-1-oxo-2-phenyl-1,2-dihydroisoquinolin-3-yl)ethyl)pyrazolo[1,5-a]pyrimidine-3-carboxamide]
stability after storage ([3]; 25° C./96% RH for more than 9 months): stable
stability after storage ([3]; 40° C./75% RH for more than 9 months): stable
Static Stability 40° C./75% RH [3]: no change after 7
Relative stability of forms in ACN/water slurries ([4]; all ACN/water experiments except 50° C. and 5° C. at water activity 0.8): most stable form
Relative stability of forms in IPA/water slurries ([4]; all temperatures (5, 25, 50° C.) and water activities (0.2-0.8), slurried 4 days): more stable than Form 6
hygroscopicity [5]: non-hygroscopic
weight increase (GVS) [5]: about 0.5%

Structure (SMILES): C[C@H](NC(=O)c1c(N)nn2cccnc12)c1cc2cccc(C#Cc3cnn(C)c3)c2c(=O)n1-c1ccccc1 [Form 2, (S)-2-amino-N-(1-(8-((1-methyl-1H-pyrazol-4-yl)ethynyl)-1-oxo-2-phenyl-1,2-dihydroisoquinolin-3-yl)ethyl)pyrazolo[1,5-a]pyrimidine-3-carboxamide]
Static Stability 40° C./75% RH [3]: amorphous after 7
hygroscopicity [5]: non-hygroscopic
weight increase (GVS) [5]: about 1.3%

Structure (SMILES): C[C@H](NC(=O)c1c(N)nn2cccnc12)c1cc2cccc(C#Cc3cnn(C)c3)c2c(=O)n1-c1ccccc1 [Form 3, (S)-2-amino-N-(1-(8-((1-methyl-1H-pyrazol-4-yl)ethynyl)-1-oxo-2-phenyl-1,2-dihydroisoquinolin-3-yl)ethyl)pyrazolo[1,5-a]pyrimidine-3-carboxamide]
Static Stability 40° C./75% RH [3]: remains Form 3

Structure (SMILES): C[C@H](NC(=O)c1c(N)nn2cccnc12)c1cc2cccc(C#Cc3cnn(C)c3)c2c(=O)n1-c1ccccc1 [Form 4, (S)-2-amino-N-(1-(8-((1-methyl-1H-pyrazol-4-yl)ethynyl)-1-oxo-2-phenyl-1,2-dihydroisoquinolin-3-yl)ethyl)pyrazolo[1,5-a]pyrimidine-3-carboxamide]
Static Stability 40° C./75% RH [3]: remains Form 4

Second part, the compound after the results:

Hygroscopicity by GVS ([1]; 0-90% RH): hygroscopic. Large steps 40-60%
GVS total weight change 0-90% RH ([1]; 0-90% RH): 15.0 wt %
Static stability at 40° C./75% RH, XRPD ([2]; after 7 days): subtle changes in XRPD after
Static stability at 25° C./96% RH, XRPD ([2]; after 26 days): no change in XRPD after 26
Static stability at 40° C./75% RH, XRPD ([2]; after 26 days): no further changes after 26
Relative stability of forms in ACN/water slurry ([4]; 5° C., ACN/water, water activity 0.8 (15 vol % water)): more stable than Form 1
weight increase (GVS) [5]: about 14%
Structure (SMILES): C[C@H](NC(=O)c1c(N)nn2cccnc12)c1cc2cccc(C#Cc3cnn(C)c3)c2c(=O)n1-c1ccccc1 [Form 6, (S)-2-amino-N-(1-(8-((1-methyl-1H-pyrazol-4-yl)ethynyl)-1-oxo-2-phenyl-1,2-dihydroisoquinolin-3-yl)ethyl)pyrazolo[1,5-a]pyrimidine-3-carboxamide]

Static Stability 40° C./75% RH [3]: remains Form 7
Structure (SMILES): C[C@H](NC(=O)c1c(N)nn2cccnc12)c1cc2cccc(C#Cc3cnn(C)c3)c2c(=O)n1-c1ccccc1 [Form 7, (S)-2-amino-N-(1-(8-((1-methyl-1H-pyrazol-4-yl)ethynyl)-1-oxo-2-phenyl-1,2-dihydroisoquinolin-3-yl)ethyl)pyrazolo[1,5-a]pyrimidine-3-carboxamide]

solubility kinetic at 30 min ([6]; 0.1M HCl, pH 1.3, simulated gastric fluid, in 0.1M HCl, pH 1.3): 0.02 mg/mL (≈ 0.0378 mM)
Kinetic solubility in 0.1M HCl compared with the free base ([6]; after 30 min, 0.1M HCl): very similar to the free base solubility
Kinetic solubility in water compared with the free base ([6]; after 30 min, water): slightly higher solubility values
Kinetic solubility with respect to the free base ([6]; summary statement): slight improve in solubility
solubility kinetic at 30 min ([6]; water, pH 2.9, water, in water, pH 2.9, 3.0): 0.04 mg/mL (≈ 0.0757 mM)
GVS hysteresis [1]: No hysteresis
GVS weight gain from 0-90% RH ([1]; 0-90% RH): 3.67%
Hygroscopicity by GVS ([1]; 0-90% RH): moderately hygroscopic
GVS weight gain ([1]; from 0-90% RH, cycle 2): 3.67%
HPLC purity change after 7 d 40° C. 75% RH 25° C. 97% RH [2, 9]: < 3% for both.
XRPD after 7 d 40° C. 75% RH 25° C. 97% RH [2, 9]: no change
XRPD after 7 d at 25° C. 97% RH ([2]; after 7 d): no changes
Static stability at 40° C./75% RH, XRPD ([2]; after 7 days): no changes
Stability at 25° C./96% RH, purity and XRPD ([2]; after a week): no significant change
Stability at 40° C./75% RH, purity and XRPD ([2]; after a week): no significant change
weight increase (GVS) [5]: about 3.7%
Structure (SMILES): C[C@H](NC(=O)c1c(N)nn2cccnc12)c1cc2cccc(C#Cc3cnn(C)c3)c2c(=O)n1-c1ccccc1 [Form P1C3]

solubility ([7]; organic solvent or mixture, in 1,2-Dimethoxyethane): < 17 mg/mL
solubility ([7]; organic solvent or mixture, in 1,4-Dioxane): < 17 mg/mL
solubility ([7]; organic solvent or mixture, in 1-Propanol): < 17 mg/mL
solubility ([7]; organic solvent or mixture, in 2-Methoxyethanol): ≥ 333 mg/mL
solubility ([7]; organic solvent or mixture, in 2-Methyl-1-propanol): < 17 mg/mL
solubility ([7]; organic solvent or mixture, in 2-Propanol): < 17 mg/mL
solubility ([7]; organic solvent or mixture, in Acetone): < 17 mg/mL
solubility ([7]; organic solvent or mixture, in Acetonitrile): < 17 mg/mL
solubility ([7]; organic solvent or mixture, in Chloroform): < 17 mg/mL
solubility ([7]; organic solvent or mixture, in Cyclohexane): < 17 mg/mL
solubility ([7]; organic solvent or mixture, in Dichloromethane): 17 to 20 mg/mL (≈ 32.2 to 37.8 mM)
solubility ([7]; organic solvent or mixture, in Dimethyl sulfoxide): ≥ 333 mg/mL
solubility ([7]; organic solvent or mixture, in Ethanol): < 17 mg/mL
solubility ([7]; organic solvent or mixture, in Ethyl acetate): < 17 mg/mL
solubility ([7]; organic solvent or mixture, in Ethyleneglycol): < 17 mg/mL
solubility ([7]; organic solvent or mixture, in IPA/Water (95/5 v/v)): < 17 mg/mL
solubility ([7]; organic solvent or mixture, in Isopropyl acetate): < 17 mg/mL
solubility ([7]; organic solvent or mixture, in MEK): < 17 mg/mL
solubility ([7]; organic solvent or mixture, in MIBK): < 17 mg/mL
solubility ([7]; organic solvent or mixture, in Methanol): < 17 mg/mL
solubility ([7]; organic solvent or mixture, in N,N-Dimethylformamide): ≥ 333 mg/mL
solubility ([7]; organic solvent or mixture, in Nitromethane): 25 to 33 mg/mL (≈ 47.3 to 62.4 mM)
solubility ([7]; organic solvent or mixture, in THF/Water (95/5 v/v)): < 17 mg/mL
solubility ([7]; organic solvent or mixture, in Tetrahydrofuran): < 17 mg/mL
solubility ([7]; organic solvent or mixture, in Toluene): < 17 mg/mL
solubility ([7]; organic solvent or mixture, in n-Heptane): < 17 mg/mL
solubility ([7]; organic solvent or mixture, in tert-Butylmethyl ether): < 17 mg/mL
solubility ([7]; in Water): < 17 mg/mL
Structure (SMILES): C[C@H](NC(=O)c1c(N)nn2cccnc12)c1cc2cccc(C#Cc3cnn(C)c3)c2c(=O)n1-c1ccccc1 [amorphous Compound 1, (S)-2-amino-N-(1-(8-((1-methyl-1H-pyrazol-4-yl)ethynyl)-1-oxo-2-phenyl-1,2-dihydroisoquinolin-3-yl)ethyl)pyrazolo[1,5-a]pyrimidine-3-carboxamide]
